Entries after “also recorded” stand apart in the source; their conditions may differ.
Assays:
[1] = solid form change on heating (XRPD); type: physicochemical
Experimental: The X-ray powder diffraction (XRPD) pattern was determined using an X-ray diffractometer. The instrument was equipped with a long fine focus X-ray tube (with a copper Kα radiation source operated at 45 kV/40 mA), and a diffracted beam monochromator mounted in front of a scintillation detector. The instrument parameters included a scan range of 3.0 to 40.0 degrees 2-theta, a step size of 0.02 degrees 2-theta, and a scan time of 12.7 seconds per step. The instrument was interfaced with a computer for data acquisition and analysis. Each sample was uniformly crushed with a spatula edge and placed on a quartz, zero-background holder.

[2] = test system: other human prostanoid receptor subtypes; conditions: cited from earlier work
[3] = test system: complete Freund's adjuvant-induced chronic inflammatory pain response; conditions: cited from earlier work
[4] = test system: thermal hyperalgesia induced by intraplantar injection of PGE2; conditions: oral administration; cited from earlier work
[5] = test system: mechanical hyperalgesia induced by carrageenan model; conditions: cited from earlier work
[6] = stability of crystalline forms (slurry experiments); conditions: in 1:1 DCM/acetone (v/v)
Experimental: The stability of the crystalline forms was analyzed using slurry experiments. A portion of the solvent of interest was saturated with grapiprant in a small vial. Additional grapiprant was then added to the vial, and the resulting slurry was stirred using a magnetic stir bar.

[7] = water activity relating Forms A and D; type: physicochemical; conditions: room temperature
Experimental: Overall, FIG. 1 summarizes the relationship of each polymorphic form with relationship to each other. Form J may be converted to Form D by drying in air (1). Form J may be converted to Form A by slurry in DCM/acetone (<1:2 v/v) at 25° C. (2). Form A may be converted to Form J by precipitation from DCM/n-heptane (2:1 v/v) (3). Forms A and D have an aw value of about 0.6 at room temperature (4). Form X may be converted from a slurry mixture of Form D and Form J in DCM/acetone or DCM/n-heptane (2:1 v/v) at room temperature (5). Form X may be converted to Form A by slurry in DCM/acetone (1:1 v/v) (6). Form A may be converted to Form X by slurry in DCM/acetone (≦1:3 v/v (7) or 1:2 v/v with 0.3 wt. % water (8)). Form X2 may be converted to Form A by slurry in DCM/acetone (1:3 v/v) with 0.3 wt. % water (9). Form A may be converted to Form X2 by slurry in acetone with 0.3 wt. % water (10). Form X2 may be converted to Form X3 by drying (11). Form X2 may also be generated by slurry of Forms A and X3 in DCM/acetone (1:3 v/v) with 0.3 wt. % water (12).

## CCc1nc2c(C)nc(C)cc2n1-c1ccc(CCNC(=O)NS(=O)(=O)c2ccc(C)cc2)cc1 [Form X]
[1]; heating to 110° C.
  form after heating (XRPD): becomes amorphous; also recorded: converted into amorphous

## CCc1nc2c(C)nc(C)cc2n1-c1ccc(CCNC(=O)NS(=O)(=O)c2ccc(C)cc2)cc1 [grapiprant, N-{2-[4-(2-ethyl-4,6-dimethyl-1H-imidazo[4,5-c]pyridin-1-yl)phenyl]ethyl}-N′-[(4-methylphenyl)sulfonyl]urea]
[2]
  selectivity for the EP4 receptor over other human prostanoid receptor subtypes: highly selective
[3]
  effect on chronic inflammatory pain response: reverses
[4]
  ED50, reduction of thermal hyperalgesia: 12.8 mg/kg
[5]
  effect on mechanical hyperalgesia: significantly reduces

## CCc1nc2c(C)nc(C)cc2n1-c1ccc(CCNC(=O)NS(=O)(=O)c2ccc(C)cc2)cc1 [Form J]
[1]; heating to 120° C.
  form after heating (XRPD): becomes Form A; also recorded: converted into Form A

## CCc1nc2c(C)nc(C)cc2n1-c1ccc(CCNC(=O)NS(=O)(=O)c2ccc(C)cc2)cc1 [Form A]
[6]
  relative stability of crystalline forms: more stable than Form J
[7]
  aw value: about 0.6
